Measured values as given in patent US20240238251A9, “A Composition Comprising Heterocyclic Compounds, Preparation Method and Application Thereof” (SHANGHAI YASHENG PHARMACEUTICAL TECHNOLOGY CO., LTD., priority 2020, published 2024).

Experiment: Pharmacokinetics after oral administration in dogs
Type: in vivo, beagle dogs
Experimental: After fully grinding and mixing the samples with PEG400 (the concentration in the sample solution was 5%), a small amount (about 2 ml) of 0.2% HPMC aqueous solution was added to grind into a uniform paste until there were no large particles. Under the condition of continuous grinding, 0.2% HPMC aqueous solution was added to a sufficient amount and maintained stirring (800 RPM) for 5 minutes. After sealing the sample solution container with sealing film, it was placed in the ultrasonic instrument (40 kHz) for ultrasonic for 20 minutes (to avoid the rise of ultrasonic medium water temperature during ultrasonic process, the water temperature was controlled within 40° C.); Stopped the ultrasound, mixed the suspension evenly before use (stirring for about 3 minutes), and then sampled immediately (the concentration of the sample was 6 mg/ml).
Test method: three male beagle dogs were selected and divided into test article 1 (APG-115 particles) group and test article 2 (APG-115 hydrate) group. Each group received single oral capsule administration: after the administration of test article 1, after an 8-day cleaning period, the group name was changed to test article 2, and so on.
Blood samples were collected and plasma was separated at 0.5, 1.0, 2.0, 4.0, 6.0, 10, 24, 48, 72, 96, 120, 144 and 168 hours before and after each round of administration. All plasma samples were mailed to the client for testing. The concentration of APG-115 in dog plasma was analyzed by LC-MS/Ms. The lower limit of quantification of the method was 50 ng/ml. The non compartmental model method (NCA) of the metabolic kinetic data analysis software winnonlin 8.0.0.3176 was used to analyze the plasma concentration data and calculate the pharmacokinetic parameters. See table 21 to evaluate the kinetic characteristics of APG-115 in animals after administration.

[1] = dog, plasma, male beagle dogs, single oral administration, Mean
[2] = male beagle dogs, single oral administration, Mean

Work on `CCN1[C@@H](C(=O)NC23CCC(C(=O)O)(CC2)CC3)[C@H](c2cccc(Cl)c2F)[C@]2(C(=O)Nc3cc(Cl)ccc32)C12CCCCC2` [APG-115 hydrate] yielded an AUC(0-inf) [1] of 33400 ng·h/mL, an AUC(0-t) [1] of 4580 ng·h/mL and a Cmax [1] of 136 ng/mL. The MRT [1] was 31.4 h, the Tmax [1] was 6 h and the half-life [1] was 346 h. For the same compound, the exposure in dogs (dogs, oral, in words) was “very low”, the CL [2] was 1.013 mL/min/kg and the Vd [2] was 29.08877 L/kg.
